Where two headings read alike, the source gives them in different places. Ends that are not written are not given here.
Key:
Clone 18 [1] = assay: MTT assay of drug sensitivity, Clone 18 cells; settings: for Fold of resistance (Clone 18/M2182tTA): IC50 of clone 18 divided by IC50 of M2182tTA; for Effect on taxol resistance / taxol cytotoxicity of clone 18: agent added with taxol, MTT assay
Protocol: (§1) For subsequent plate assays of the effects of taxol and other drugs on colony formation, 1×10^4 cells per 10 cm plate or per each well of six-well plate were seeded one day prior to drug treatment at the concentrations indicated. After 7 to 14 days exposure to drug, the resistant colonies were stained with 0.5% crystal violet solution and photographed. For quantitative determination of the surviving fraction, the collection of crystal violet stained colonies were incubated with 0.5 ml of DMSO overnight and the absorbance at 570 nm of dye extracted solution was measured. The fraction of surviving cells was calculated relative to non-treated controls. Results were averaged from at least two to three independent experiments. For IC50 determination, 3×10^3 cells per well of a 96-well plate were seeded one day prior to treatment by serially diluted drugs or in combination with indicated protein/peptides. The viability of treated cells was quantified by their ability to reduce tetrazolium salt 3-(4,5-dimethylthiazol-2-y)-2,5-diphenyl tetrasodium bromide (MTT, Sigma) to a formazan dye whose absorbance is detectable at 570 nm. The IC50 value was defined as the dose of taxol that inhibited cell growth by 50%.

M2182tTA = assay: MTT assay of drug sensitivity, M2182tTA cells; format: cell-based, human; settings: for Effect on killing of naive M2182tTA cells by taxol: agent added with taxol
Protocol: as §1

Clone 18 cells = assay: TUNEL assay of apoptosis, clone 18 cells; format: cell-based, human; settings: clone 18, TSP-1 plus taxol
Protocol: For subsequent plate assays of the effects of taxol and other drugs on colony formation, 1×10^4 cells per 10 cm plate or per each well of six-well plate were seeded one day prior to drug treatment at the concentrations indicated. After 7 to 14 days exposure to drug, the resistant colonies were stained with 0.5% crystal violet solution and photographed. For quantitative determination of the surviving fraction, the collection of crystal violet stained colonies were incubated with 0.5 ml of DMSO overnight and the absorbance at 570 nm of dye extracted solution was measured. The fraction of surviving cells was calculated relative to non-treated controls. Results were averaged from at least two to three independent experiments. For IC50 determination, 3×10^3 cells per well of a 96-well plate were seeded one day prior to treatment by serially diluted drugs or in combination with indicated protein/peptides. The viability of treated cells was quantified by their ability to reduce tetrazolium salt 3-(4,5-dimethylthiazol-2-y)-2,5-diphenyl tetrasodium bromide (MTT, Sigma) to a formazan dye whose absorbance is detectable at 570 nm. The IC50 value was defined as the dose of taxol that inhibited cell growth by 50%. […]

Clone 18 [2] = tested on: Clone 18
Protocol: as §1

[3] = agent added with adriamycin, etoposide, vinblastine, vincristine or epothilone B

COc1cccc2c1C(=O)c1c(O)c3c(c(O)c1C2=O)C[C@@](O)(C(=O)CO)C[C@@H]3O[C@H]1C[C@H](N)[C@H](O)[C@H](C)O1 [Adriamycin, adriamycin]
Reduced killing of clone 18 cells (versus parental cells) (Clone 18 [1]): No evidence of reduced killing

C/C(=C\c1csc(C)n1)[C@@H]1C[C@@H]2O[C@]2(C)CCC[C@H](C)[C@H](O)[C@@H](C)C(=O)C(C)(C)[C@@H](O)CC(=O)O1 [Epothilone B]
Reduced killing of clone 18 cells (versus parental cells) (Clone 18 [1]): No evidence of reduced killing | Fold of resistance (Clone 18/M2182tTA) (Clone 18 [1]): 0.9

COc1cc([C@@H]2c3cc4c(cc3[C@@H](O[C@@H]3O[C@@H]5CO[C@@H](C)O[C@H]5[C@H](O)[C@H]3O)[C@H]3COC(=O)[C@H]23)OCO4)cc(OC)c1O [Etoposide, etoposide]
Reduced killing of clone 18 cells (versus parental cells) (Clone 18 [1]): No evidence of reduced killing

CC(=O)O[C@H]1C(=O)[C@@]2(C)[C@H]([C@H](OC(=O)c3ccccc3)[C@]3(O)C[C@H](OC(=O)[C@H](O)[C@@H](NC(=O)c4ccccc4)c4ccccc4)C(C)=C1C3(C)C)[C@]1(OC(C)=O)CO[C@@H]1C[C@@H]2O [Taxol, Paclitaxel]
Fold of resistance (Clone 18/M2182tTA) (Clone 18 [1]): approximately two and a half-fold greater

CC[C@]1(O)C[C@@H]2CN(CCc3c([nH]c4ccccc34)[C@@](C(=O)OC)(c3cc4c(cc3OC)N(C)[C@H]3[C@@](O)(C(=O)OC)[C@H](OC(C)=O)[C@]5(CC)C=CCN6CC[C@]43[C@@H]65)C2)C1 [Vinblastine, vinblastine]
Reduced killing of clone 18 cells (versus parental cells) (Clone 18 [1]): No evidence of reduced killing

CC[C@]1(O)C[C@H]2CN(CCc3c([nH]c4ccccc34)[C@@](C(=O)OC)(c3cc4c(cc3OC)N(C=O)[C@H]3[C@@](O)(C(=O)OC)[C@H](OC(C)=O)[C@]5(CC)C=CCN6CC[C@]43[C@@H]65)C2)C1 [Vincristine, vincristine]
Reduced killing of clone 18 cells (versus parental cells) (Clone 18 [1]): No evidence of reduced killing

GVITRIR (human) [ABT-510]
Effect on killing of naive M2182tTA cells by taxol (M2182tTA; MTT assay): not and absence of any detectable effect | Effect on taxol resistance / taxol cytotoxicity of clone 18 (Clone 18 [1]): absence of any detectable effect | Effect on taxol resistance / taxol cytotoxicity of clone 18 (Clone 18 [1]; listed as ABT510): no effect

KRFYGGMWKK [4NGG]
Effect on taxol resistance / taxol cytotoxicity of clone 18 (Clone 18 [1]): no effect

KRFYVVMWKK [4N1K]
Effect on taxol resistance / taxol cytotoxicity of clone 18 (Clone 18 [1]): dose-dependent partial reversal

TSP-1: TSP-1 purified from human platelets; extracellular matrix bound adhesive glycoprotein
Taxol-induced apoptosis (Clone 18 cells): dramatically and synergistically increased | Effect on sensitivity of M2182tTA cells to other chemotherapeutic drugs (M2182tTA; [3]): sensitization was not observed | Effect on killing of naive M2182tTA cells by taxol (M2182tTA; MTT assay): reduced survival | Ability of TSP-1 alone to reduce survival and induce apoptosis (Clone 18 [1]; TSP-1 alone, at the dosage added to cultures of clone 18 cells): only limited ability to reduce survival and induce apoptosis | Effect on killing of clone 18 cells by other chemotherapeutic agents (Clone 18 [1]; [3]): no effects | Effect on taxol resistance / taxol cytotoxicity of clone 18 (Clone 18 [2]): dose-dependent partial reversal

pertussus toxin
Cells that survive taxol treatment (M2182tTA; M2182tTA, 0.5 μg/ml pertussis toxin, MTT assay): An increase in cells that survive taxol treatment

Source: patent US20070209082A1, “Txr1 and enhanced taxane sensitivity based on the modulation of a pathway mediated thereby” (priority 2005, published 2007)
